From PubChem BioAssay (NCI)
Converted amounts (≈) assume the structure as drawn. “And” between values parts separate entries of the source, which are not always exact repeats. Equal entries are not always repeated.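 Assay format: 96-well plates, 48-hour exposure. Here, GI50 denotes the concentration required for 50% inhibition of growth. TGI denotes the concentration required for complete inhibition of growth.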

Tests used:
Assay in all cases: inhibition of tumour cell growth, NCI panel, 48 h
HCT-116 colon = test system: HCT-116 colon
SK-MEL-5 melanoma = test system: SK-MEL-5 melanoma
SR leukemia = test system: SR leukemia
LOX IMVI melanoma = test system: LOX IMVI melanoma
SW-620 colon = test system: SW-620 colon
K-562 leukemia = test system: K-562 leukemia
NCI-H522 lung = test system: NCI-H522 lung
HT29 colon = test system: HT29 colon
MCF7 breast = test system: MCF7 breast
SK-OV-3 ovarian = test system: SK-OV-3 ovarian
SF-295 CNS = test system: SF-295 CNS
HCT-15 colon = test system: HCT-15 colon
786-0 renal = test system: 786-0 renal
HOP-62 NSCLC = test system: HOP-62 NSCLC
OVCAR-8 ovarian = test system: OVCAR-8 ovarian
DU-145 prostate = test system: DU-145 prostate
NCI/ADR-RES ovarian = test system: NCI/ADR-RES ovarian
A498 renal = test system: A498 renal
SF-268 CNS = test system: SF-268 CNS
SNB-75 CNS = test system: SNB-75 CNS
CAKI-1 renal = test system: CAKI-1 renal
SK-MEL-28 melanoma = test system: SK-MEL-28 melanoma
T-47D breast = test system: T-47D breast
MOLT-4 leukemia = test system: MOLT-4 leukemia
RPMI-8226 leukemia = test system: RPMI-8226 leukemia
UACC-62 melanoma = test system: UACC-62 melanoma
UACC-257 melanoma = test system: UACC-257 melanoma
A549 NSCLC = test system: A549 NSCLC
MDA-MB-231 breast = test system: MDA-MB-231 breast
UO-31 renal = test system: UO-31 renal
MDA-MB-435 = test system: MDA-MB-435
RXF 393 renal = test system: RXF 393 renal
COLO 205 colon = test system: COLO 205 colon
SF-539 CNS = test system: SF-539 CNS
HS 578T breast = test system: HS 578T breast
SK-MEL-2 melanoma = test system: SK-MEL-2 melanoma
HL-60(TB) leukemia = test system: HL-60(TB) leukemia
M14 melanoma = test system: M14 melanoma
SNB-19 CNS = test system: SNB-19 CNS
OVCAR-3 ovarian = test system: OVCAR-3 ovarian
HOP-92 NSCLC = test system: HOP-92 NSCLC
TK-10 renal = test system: TK-10 renal
NCI-H226 lung = test system: NCI-H226 lung
BT-549 breast = test system: BT-549 breast
U251 CNS = test system: U251 CNS
KM12 colon = test system: KM12 colon
PC-3 prostate = test system: PC-3 prostate
IGROV1 ovarian = test system: IGROV1 ovarian
OVCAR-4 ovarian = test system: OVCAR-4 ovarian
NCI-H23 lung = test system: NCI-H23 lung
ACHN renal = test system: ACHN renal
MALME-3M melanoma = test system: MALME-3M melanoma
OVCAR-5 ovarian = test system: OVCAR-5 ovarian
SN12C renal = test system: SN12C renal
NCI-H460 lung = test system: NCI-H460 lung
HCC-2998 colon = test system: HCC-2998 colon
EKVX NSCLC = test system: EKVX NSCLC
MDA-N = test system: MDA-N
CCRF-CEM leukemia = test system: CCRF-CEM leukemia

CC1(C)CC(=O)C2=C(C1)NC(SSC1=C(C#N)C(c3ccc(Br)cc3)C3=C(CC(C)(C)CC3=O)N1)=C(C#N)C2c1ccc(Br)cc1 (stereo not drawn) was tested, and the GI50 (HCT-116 colon) was 89.8 µg/mL (≈ 116 µM), the TGI (HCT-116 colon) was > 100 µM and 150 µg/mL and the GI50 (SK-MEL-5 melanoma) was over 150 µg/mL. The TGI (SK-MEL-5 melanoma) was > 100 µM and 150 µg/mL, the GI50 (SR leukemia) was 22.8 µg/mL (≈ 29.4 µM) and the TGI (SR leukemia) was > 100 µM and 66.2 µg/mL. The GI50 (LOX IMVI melanoma) was 22.9 µg/mL (≈ 29.4 µM), the TGI (LOX IMVI melanoma) was > 100 µM and 46.6 µg/mL and the GI50 (SW-620 colon) was 29.3 µg/mL (≈ 37.7 µM). For the same molecule, the TGI (SW-620 colon) was > 100 µM and 56.1 µg/mL, the GI50 (K-562 leukemia) was 30.8 µg/mL (≈ 39.7 µM) and the TGI (K-562 leukemia) was > 100 µM and 76.4 µg/mL. The GI50 (NCI-H522 lung) was 30 µg/mL (≈ 38.6 µM), the TGI (NCI-H522 lung) was > 100 µM and 53.5 µg/mL and the GI50 (HT29 colon) was over 150 µg/mL. The TGI (HT29 colon) was > 100 µM and 150 µg/mL, the GI50 (MCF7 breast) was over 150 µg/mL and the TGI (MCF7 breast) was 150 µg/mL (≈ 193 µM). For the same molecule, the GI50 (SK-OV-3 ovarian) was over 150 µg/mL, the TGI (SK-OV-3 ovarian) was > 100 µM and 150 µg/mL and the GI50 (SF-295 CNS) was over 150 µg/mL. The TGI (SF-295 CNS) was > 100 µM and 150 µg/mL, the GI50 (HCT-15 colon) was 88.6 µg/mL (≈ 114 µM) and the TGI (HCT-15 colon) was > 100 µM and 150 µg/mL. For the same molecule, the GI50 (786-0 renal) was 53.8 µg/mL (≈ 69.2 µM), the TGI (786-0 renal) was > 100 µM and 150 µg/mL and the GI50 (HOP-62 NSCLC) was over 150 µg/mL. For the same molecule, the TGI (HOP-62 NSCLC) was > 100 µM and 150 µg/mL, the GI50 (OVCAR-8 ovarian) was 48.6 µg/mL (≈ 62.5 µM) and the TGI (OVCAR-8 ovarian) was > 100 µM and 150 µg/mL. The GI50 (DU-145 prostate) was over 150 µg/mL, the TGI (DU-145 prostate) was > 100 µM and 150 µg/mL and the GI50 (NCI/ADR-RES ovarian) was 28.9 µg/mL (≈ 37.2 µM). For the same molecule, the TGI (NCI/ADR-RES ovarian) was > 100 µM and 64.1 µg/mL, the GI50 (A498 renal) was over 150 µg/mL and the TGI (A498 renal) was > 100 µM and 150 µg/mL. The GI50 (SF-268 CNS) was over 150 µg/mL, the TGI (SF-268 CNS) was > 100 µM and 150 µg/mL and the GI50 (SNB-75 CNS) was over 150 µg/mL. For the same molecule, the TGI (SNB-75 CNS) was 150 µg/mL (≈ 193 µM), the GI50 (CAKI-1 renal) was over 150 µg/mL and the TGI (CAKI-1 renal) was > 100 µM and 150 µg/mL. The GI50 (SK-MEL-28 melanoma) was 48.4 µg/mL (≈ 62.3 µM), the TGI (SK-MEL-28 melanoma) was > 100 µM and 131 µg/mL and the GI50 (T-47D breast) was 35 µg/mL (≈ 45.1 µM). For the same molecule, the TGI (T-47D breast) was > 100 µM and 119 µg/mL, the GI50 (MOLT-4 leukemia) was 41.9 µg/mL (≈ 53.9 µM) and the TGI (MOLT-4 leukemia) was > 100 µM and 150 µg/mL. The GI50 (RPMI-8226 leukemia) was 30.6 µg/mL (≈ 39.5 µM), the TGI (RPMI-8226 leukemia) was > 100 µM and 79.3 µg/mL and the GI50 (UACC-62 melanoma) was 122 µg/mL (≈ 157 µM). The TGI (UACC-62 melanoma) was > 100 µM and 150 µg/mL, the GI50 (UACC-257 melanoma) was over 150 µg/mL and the TGI (UACC-257 melanoma) was > 100 µM and 150 µg/mL. For the same molecule, the GI50 (A549 NSCLC) was over 150 µg/mL, the TGI (A549 NSCLC) was > 100 µM and 150 µg/mL and the GI50 (MDA-MB-231 breast) was 26.6 µg/mL (≈ 34.3 µM). The TGI (MDA-MB-231 breast) was > 100 µM and 53.5 µg/mL, the GI50 (UO-31 renal) was 76.3 µg/mL (≈ 98.3 µM) and the TGI (UO-31 renal) was > 100 µM and 150 µg/mL. For the same molecule, the GI50 (MDA-MB-435) was 90.8 µg/mL (≈ 117 µM), the TGI (MDA-MB-435) was > 100 µM and 150 µg/mL and the GI50 (RXF 393 renal) was 41.6 µg/mL (≈ 53.5 µM). For the same molecule, the TGI (RXF 393 renal) was > 100 µM and 123 µg/mL, the GI50 (COLO 205 colon) was over 150 µg/mL and the TGI (COLO 205 colon) was > 100 µM and 150 µg/mL. The GI50 (SF-539 CNS) was over 150 µg/mL, the TGI (SF-539 CNS) was > 100 µM and 150 µg/mL and the GI50 (HS 578T breast) was 43.5 µg/mL (≈ 56 µM). The TGI (HS 578T breast) was > 100 µM and 150 µg/mL, the GI50 (SK-MEL-2 melanoma) was over 150 µg/mL and the TGI (SK-MEL-2 melanoma) was > 100 µM and 150 µg/mL. For the same molecule, the GI50 (HL-60(TB) leukemia) was 31.2 µg/mL (≈ 40.2 µM), the TGI (HL-60(TB) leukemia) was > 100 µM and 77.1 µg/mL and the GI50 (M14 melanoma) was 51.4 µg/mL (≈ 66.2 µM). For the same molecule, the TGI (M14 melanoma) was > 100 µM and 150 µg/mL, the GI50 (SNB-19 CNS) was over 150 µg/mL and the TGI (SNB-19 CNS) was > 100 µM and 150 µg/mL. For the same molecule, the GI50 (OVCAR-3 ovarian) was over 150 µg/mL, the TGI (OVCAR-3 ovarian) was > 100 µM and 150 µg/mL and the GI50 (HOP-92 NSCLC) was 46.4 µg/mL (≈ 59.7 µM). The TGI (HOP-92 NSCLC) was > 100 µM and 116 µg/mL, the GI50 (TK-10 renal) was over 150 µg/mL and the TGI (TK-10 renal) was > 100 µM and 150 µg/mL. For the same molecule, the GI50 (NCI-H226 lung) was over 150 µg/mL, the TGI (NCI-H226 lung) was > 100 µM and 150 µg/mL and the GI50 (BT-549 breast) was 28.1 µg/mL (≈ 36.2 µM). For the same molecule, the TGI (BT-549 breast) was > 100 µM and 52 µg/mL, the GI50 (U251 CNS) was over 150 µg/mL and the TGI (U251 CNS) was > 100 µM and 150 µg/mL. The GI50 (KM12 colon) was over 150 µg/mL, the TGI (KM12 colon) was > 100 µM and 150 µg/mL and the GI50 (PC-3 prostate) was 91.4 µg/mL (≈ 118 µM). The TGI (PC-3 prostate) was > 100 µM and 150 µg/mL, the GI50 (IGROV1 ovarian) was over 150 µg/mL and the TGI (IGROV1 ovarian) was > 100 µM and 150 µg/mL. For the same molecule, the GI50 (OVCAR-4 ovarian) was 34.4 µg/mL (≈ 44.2 µM), the TGI (OVCAR-4 ovarian) was > 100 µM and 84.8 µg/mL and the GI50 (NCI-H23 lung) was over 150 µg/mL. For the same molecule, the TGI (NCI-H23 lung) was > 100 µM and 150 µg/mL, the GI50 (ACHN renal) was over 150 µg/mL and the TGI (ACHN renal) was > 100 µM and 150 µg/mL. The GI50 (MALME-3M melanoma) was 35.8 µg/mL (≈ 46.1 µM), the TGI (MALME-3M melanoma) was > 100 µM and 98.7 µg/mL and the GI50 (OVCAR-5 ovarian) was over 150 µg/mL. The TGI (OVCAR-5 ovarian) was > 100 µM and 150 µg/mL, the GI50 (SN12C renal) was 71.2 µg/mL (≈ 91.7 µM) and the TGI (SN12C renal) was > 100 µM and 150 µg/mL. The GI50 (NCI-H460 lung) was over 150 µg/mL, the TGI (NCI-H460 lung) was > 100 µM and 150 µg/mL and the GI50 (HCC-2998 colon) was over 150 µg/mL. For the same molecule, the TGI (HCC-2998 colon) was 150 µg/mL (≈ 193 µM), the GI50 (EKVX NSCLC) was over 150 µg/mL and the TGI (EKVX NSCLC) was > 100 µM and 150 µg/mL. For the same molecule, the GI50 (MDA-N) was 45.9 µg/mL (≈ 59.1 µM), the TGI (MDA-N) was > 100 µM and 150 µg/mL and the GI50 (CCRF-CEM leukemia) was 34.3 µg/mL (≈ 44.2 µM). The TGI (CCRF-CEM leukemia) was > 100 µM and 107 µg/mL.
